The source of these data is ChEMBL document CHEMBL3244110, “Synthesis and biological evaluation of some 2-amino-4-aryl-3H-1,5-benzodiazepine analogues of clozapine” (J Med Chem, 1978).

Calls of active or inactive are those of the source. The rule behind the calls is not given here.

For series [1], the system named is Mus musculus. Put plainly: Antipsychotic activity in mouse assessed as increase in brain dopamine turnover at 25 to 30 mg/kg, ip pretreated with 200 mg/kg, ip alpha-methyl-p-tyrosine tyrosine hydroxylase inhibitor. The format is functional, organism-based.
Series [2] relates to Mus musculus. Put plainly: Antipsychotic activity in mouse assessed as protection against amphetamine-induced lethality at 5 mg/kg, ip treated 30 mins before amphetamine challenge. It is filed as functional, organism-based. Further details: dose 5 mg/kg.
For series [3], the system named is Mus musculus. Put plainly: Antipsychotic activity in mouse assessed as protection against amphetamine-induced lethality at 50 mg/kg, ip treated 30 mins before amphetamine challenge. It is filed as functional, organism-based. Further details: dose 50 mg/kg.
In series [4] the test system is Rattus norvegicus. The series is described as follows: Antipsychotic activity in 0.2 mA footshock-induced conditioned stimulus rat assessed as decrease in avoidance response at 5 mg/kg, ip after 30 mins. The format is functional, organism-based. Further details: dose 5 mg/kg.
Series [5] has as its system Rattus norvegicus. The series is described as follows: Antipsychotic activity in 0.2 mA footshock-induced conditioned stimulus rat assessed as decrease in avoidance response at 20 mg/kg, ip after 30 mins. The format is functional, organism-based. Further details: dose 20 mg/kg.
The target of series [6] is Adenylate cyclase (Rattus norvegicus) (UniProt D4A3N4+P26770+Q04400+P26769+Q03343+P40146+Q8CFM9+P21932). Put plainly: Inhibition of dopamine-sensitive rat brain adenylyl cyclase activity assessed as cAMP level at 10^-4 M. For orientation: cAMP levels reflect the balance of adenylyl cyclase and phosphodiesterase activity.
For series [7], the system named is Mus musculus. Put plainly: Toxicity in mouse assessed as depression at 50 mg/kg, ip. Further details: dose 50 mg/kg, route intraperitoneal. Particulars: in vivo. The format is organism-based.
The subject of series [8] is Mus musculus. Put plainly: Toxicity in mouse assessed as ptosis at 50 mg/kg, ip. Conditions: in vivo. It is filed as organism-based. Further details: dose 50 mg/kg, route intraperitoneal.
Series [9] has as its target Adenylate cyclase. The series is described as follows: Inhibition of dopamine-sensitive rat brain adenylyl cyclase activity assessed as cAMP level.

For `CSc1ccc2c(c1)N(CCC1CCCCN1C)c1ccccc1S2` (stereo unspecified), in series [1], the outcome was Active.
For `COc1ccc(C2=Nc3ccccc3N=C(N3CCN(C)CC3)C2)cc1`, the outcome in [2], in series [3], in [4] and in [5] was inactive.
As for `FC(F)(F)c1ccc(C2=CCN(C3=Nc4ccccc4N=C(c4ccccc4)C3)CC2)cc1`, the result in [2], in series [3], in [4], in series [5] and in series [1] was inactive. In addition, the inhibition result in series [6] was “inactive”.
For `CN(C)CCCN1c2ccccc2Sc2ccc(Cl)cc21`, the result in series [2], in series [3] and in series [1] was Active.
On to `Clc1ccc(C2=Nc3ccccc3N=C(N3CCC(c4ccccc4)CC3)C2)cc1`, for which the result in [2], in [3], in [4], in [5] and in series [1] was inactive. The Activity result in series [7] and in series [8] was “Toxic” each time.
With `c1ccc(C2=Nc3ccccc3N=C(N3CCC(N4CCCCC4)CC3)C2)cc1`, the outcome in series [2], in series [3], in series [4] and in series [5] was inactive. The outcome in series [1] was Active. In [6], the inhibition entry was “inactive”.
In the case of `CN1CCN(C2=Nc3cc(Cl)ccc3N=C(c3ccccc3)C2)CC1`, in [2], the outcome was Active. For the same compound, the result in [3], in series [4], in series [5] and in series [1] was inactive.
As usually defined, the IC50 is the concentration that gives 50% inhibition. As for `O=C(CCCN1CCC(O)(c2ccc(Cl)cc2)CC1)c1ccc(F)cc1` [HALOPERIDOL], the result in series [2], in series [3] and in series [1] was Active. In series [9], the IC50 worked out at 2.3 µM.
On to `CN(CCO)C1=Nc2ccccc2N=C(c2ccccc2)C1`, for which the result in [2], in [3], in [4], in [5] and in series [1] was inactive.
As to `Cc1ccc(C2=Nc3ccccc3N=C(N3CCN(C)CC3)C2)cc1`, the result in series [2], in [3], in [4] and in series [5] was inactive.
In the case of `Clc1ccc2c(c1)N=C(N1CCC(c3ccccc3)CC1)CC(c1ccccc1)=N2`, the outcome in series [2], in series [3], in [4], in series [5] and in series [1] was inactive. The inhibition entry in series [6] was “inactive”. The Activity result in series [8] is “Toxic”.
Take `Clc1ccc(C2=CCN(C3=Nc4ccccc4N=C(c4ccccc4)C3)CC2)cc1`: the outcome in series [2], in [3], in series [4] and in series [5] was inactive. For the same compound, the outcome in series [1] was Active. For the same compound, the inhibition entry in [6] was “inactive”. The Activity entry in [7] and in series [8] was “Toxic” in each case.
For the compound `COc1ccc(C2CCN(C3=Nc4ccccc4N=C(c4ccccc4)C3)CC2)cc1`, the result in series [2], in series [3], in series [4], in series [5] and in series [1] was inactive. The inhibition entry in series [6] was “inactive”.
Regarding `FC(F)(F)c1cccc(C2CCN(C3=Nc4ccccc4N=C(c4ccccc4)C3)CC2)c1`, the result in series [2], in series [3], in series [4], in series [5] and in series [1] was inactive. Also, in series [6], the inhibition result was “inactive”. Further, in series [8], the Activity entry is on record as “Toxic”.
For `FC(F)(F)c1ccc(C2CCN(C3=Nc4ccccc4N=C(c4ccccc4)C3)CC2)cc1`, the result in [2] was Active. The outcome in [3], in series [4], in series [5] and in [1] was inactive. For the same compound, the inhibition result in [6] was “inactive”. Also, the Activity result in series [7] is recorded as “Toxic”.
Regarding `C1=C(c2ccccc2)CCN(C2=Nc3ccccc3N=C(c3ccccc3)C2)C1`, the outcome in series [2], in series [3], in series [4], in series [5] and in series [1] was inactive. In addition, the inhibition result in [6] was “inactive”.
Take `c1ccc(C2=Nc3ccccc3N=C(N3CCOCC3)C2)cc1`: the result in series [2], in [3], in [4], in series [5] and in series [1] was inactive.
Turning to `Cc1cc2c(cc1C)N=C(N1CCC(c3ccccc3)CC1)CC(c1ccccc1)=N2`, the result in [2], in [3], in series [4], in [5] and in series [1] was inactive. In series [6], the inhibition entry is “inactive”.
Take `c1ccc(C2=Nc3ccccc3N=C(N3CCCCC3)C2)cc1`: the outcome in series [2], in series [3], in series [4], in series [5] and in [1] was inactive.
For the compound Butaclamol, the outcome in [2] and in series [3] was Active.
As for `Cc1cc2c(cc1C)N=C(N1CCN(C)CC1)CC(c1ccc(F)cc1)=N2`, the result in series [2], in series [3], in [4] and in [5] was inactive.
As to `c1ccc(C2=Nc3ccccc3N=C(N3CCC(C(c4ccccc4)c4ccccc4)CC3)C2)cc1`, the outcome in series [2], in series [4], in series [5] and in series [1] was inactive. Further, in series [3], the result was Active. Moreover, the Activity result in [8] is listed as “Toxic”.
As to `CN(C)C1=Nc2ccccc2N=C(c2ccccc2)C1`, the outcome in series [2], in [3], in series [4], in series [5] and in series [1] was inactive. Besides, the Activity entry in series [8] is reported as “Toxic”.
As to `COc1ccc(C2=Nc3ccccc3N=C(N3CCC(c4ccccc4)CC3)C2)cc1`, the outcome in series [2], in series [3], in [4], in [5] and in series [1] was inactive.
In the case of `CN1CCN(C2=Nc3ccccc3N=C(c3ccc(Cl)cc3)C2)CC1`, the outcome in [2], in series [3], in [4], in series [5] and in [1] was inactive.
Take `c1ccc(CC2CCN(C3=Nc4ccccc4N=C(c4ccccc4)C3)CC2)cc1`: the outcome in series [2] and in series [3] was Active. Besides, the outcome in [4], in [5] and in [1] was inactive. Also, the Activity result in [8] is “Toxic”.
Consider `CN1CCN(C2=Nc3ccccc3N=C(c3ccccc3)C2)CC1`, for which the result in [2], in series [3], in series [4] and in series [5] was inactive. The outcome in [1] was Active. Further, in series [6], the inhibition result was “inactive”. The Activity result in [7] and in series [8] was “Toxic” throughout.
On to `c1ccc(C2=Nc3ccccc3N=C(N3CCN(c4ccccc4)CC3)C2)cc1`, for which the result in [2], in [3], in series [4], in series [5] and in [1] was inactive.
Turning to `Cc1ccc(C2=Nc3ccccc3N=C(N3CCC(c4ccccc4)CC3)C2)cc1`, the result in series [2], in series [3], in series [4], in series [5] and in [1] was inactive.
As for `OCCN1CCN(CCCN2c3ccccc3Sc3ccc(C(F)(F)F)cc32)CC1`, the result in [2] and in [3] was Active.
As to `c1ccc(C2=Nc3ccccc3N=C(N3CCCC3)C2)cc1`, the outcome in series [2], in [3], in series [4], in series [5] and in series [1] was inactive.
